Starred links: 1 amine or outer side, 2 acyl side, 3 side chain; linkers in the order of their positions; H or OH if unused. Positions of bridges follow the written chain, without caps; N, C: chain ends. Residues, ends and D or L forms follow the SMILES beside them. Chains are numbered I, II in the order given. *: point of attachment. X1 = O=C1CC([*:2])C(=O)N1CCCCCC(=O)[*:1]; Palmitoyl = CCCCCCCCCCCCCCCC(=O)*
What was measured:
[1] = Water solubility (observation); format: physicochemical
[2] = test system: human erythrocyte suspension; assay: Hemolytic activity assay on human erythrocyte suspension; format: cell-based; details: 2% (v/v) human erythrocyte suspension, 2 h, 37 °C, 0.05–100 µM
Protocol: The hemolytic activity of the compounds was measured on human erythrocyte suspension. Cytotoxicity was assayed on murine BMDM. These two experiments are detailed in the Supplementary Information.
The hemolytic activity of the compounds was assayed as described previously. Briefly, peripheral blood from healthy volunteers was collected in vacuum tubes containing heparin (Li-heparin LH, VenoSafe) as anticoagulant. Tubes were centrifuged (1000 g, 5 min) and the pellet was washed three times with RPMI-1640 (culturing medium without phenol red). RPMI medium was added to the pellet to yield a final 2% (v/v) RBC suspension. […]
0.5%). […] After centrifugation (1000 g, 5 min), 100 µL of the supernatant was transferred to a flat-bottom microtiter plate and absorbance was measured at 414 nm using an ELISA plate reader (iEMS Reader, Labsystems). The percentage hemolysis was compared to a hemolytic control peptide (CM15, 200 μM) treated RBC and the concentration of peptide at which 50% hemolysis occurred (HC50 value) was determined. Compounds were measured in triplicates.
The cytotoxic effect of the compounds was measured on murine BMDMs. […] The precipitated purple crystals were dissolved in 100 μL DMSO, and after 10 minutes agitation, the absorbance was determined at λ = 540 nm and 620 nm using an ELISA plate reader (iEMS Reader, Labsystems). […]
1 Determined on 2% (v/v) human erythrocyte suspension. […]

[3] = test system: antigen presenting cells; assay: Time course of cellular uptake by flow cytometry; format: cell-based; details: incubation 15 min to 16 h, FITC-positive cells and mean fluorescence intensity (Figure 3c)
Protocol: To further analyze the internalization of the compounds, the time course of the cellular uptake rate was measured by flow cytometry. […] The internalization rate of pal-A(P)I conjugate was very fast.
Figure 3 Detailed study on the cellular uptake by antigen presenting cells and the time course of internalization. Fluorescence intensity of compound treated cells was analyzed by flow cytometry (a) with or without trypsinization, and (b) in the presence or absence of trypan blue. No significant differences were observed after eliminating the fluorescent signal from adsorbed peptides or conjugates. (c) To study the time course of internalization, different incubation periods (15 min, 1 h, 3 h, 6 h, and 16 h) were applied, and the intracellular fluorescence intensity was measured. (d) The viability of compound-treated cells was compared to untreated control cells, and relative viabilities are presented. The viability of the control cells was always > 85% (results are represented as mean ± SEM, n = 3).

[4] = test system: MonoMac6 human monocytes (MM6); assay: Cellular uptake (internalization) by flow cytometry in MonoMac6; details: Cf-labelled compounds, MM6, 2.5 µM, 2 h, flow cytometry histograms (Figure S1)
Protocol: Internalization of the compounds was measured in the MonoMac6 (MM6) human monocytic cell line [31] and on murine bone marrow-derived macrophages (BMDMs). MonoMac6 cells were maintained as an adherent culture in RPMI-1640 supplemented with 10% heat-inactivated fetal calf serum (FCS) L-glutamine (2 mM) and gentamicin (35 μM) at 37 °C in a humidified atmosphere containing 5% CO2. […] For the assay, cells were treated with peptides at 2.5 µM final concentration and were incubated for 2 hours. After centrifugation (1000 rpm, 5 min) and washing with serum-free RPMI medium, supernatant was removed and 100 μL 0.25% trypsin was added to the cells. After 5 min incubation, 0.8 mL 10% FCS/HPMI medium was added, then cells were washed and re-suspended in 0.3 mL HPMI medium. The intracellular fluorescence intensity of the cells was measured on a BD LSR II flow cytometer (BD Biosciences, San Jose, CA, USA) on channel FITC (emission at λ = 505 nm) and data were analyzed with FACSDiva 5.0 software (BD Biosciences, San Jose, CA, USA). External fluorescence quenching was performed by adding 10 µL of 0.04% trypan blue solution. […]
treated with the compounds, then cells were analyzed by flow cytometry. To quantify viable cells, […]
negative control, RPMI medium was used (b) and the FITC-negative population was determined on this

[5] = test system: MM6 cells; assay: Intracellular localization by confocal laser scanning microscopy; format: cell-based, human; details: Cf-labelled peptides, 60 min; P/A/I mix 5 µM, A(P)I 2.5 µM, pal-A(P)I 0.5 µM
Protocol: Cellular uptake and localization were visualized by confocal microscopy. MM6 cells were seeded (10^5 cells/well) one day prior to treatment on cover glass containing 24-well plates (Sarstedt, Nümbrecht, Germany). Lysosomes were stained by LysoTracker^TM Deep Red (Invitrogen, Carlsbad, CA, USA) for 30 min, followed by incubation with Cf-labeled peptides for 60 min. Subsequently, nuclei were stained by Hoechst 33342 solution (Thermo Scientific, Waltham, MA, USA). After each step, cells were washed three times with serum-free medium. Cells were fixed by 4% paraformaldehyde for 15 min and mounted to microscopy slides with Mowiol® 4–88. Imaging was performed on a Zeiss LSM 710 system with 40× oil immersion objective. Images were processed with ZEN lite software (Zeiss, Oberkochen, Germany).
Localization of the compounds was visualized by confocal laser scanning microscopy in MM6 cells (Figure 2c). Cells were incubated with Cf-labelled peptides for 60 min; moreover, nuclei and lysosomes were also stained. The peptide concentrations for P/A/I mix, A(P)I, and pal-A(P)I were 5, 2.5, and 0.5 µM, respectively. As different compound concentrations and laser intensities were also used to visualize the compounds showing low or high internalization, the presented images give information about the intracellular localization and are not to be considered in a quantitative manner.

| Compound | water solubility [1] | Hemolytic activity HC50 ± sd [2] [µM] | time course of internalization, in words [3] | percentage of FITC-positive cells [4] [%] | intracellular localization [5] |
| --- | --- | --- | --- | --- | --- |
| CCCCCCCCCCCCCCCC(=O)N[C@@H](CCCCN)C(=O)N[C@@H](CC(C)C)C(=O)N[C@H](C(=O)N[C@@H](C)C(=O)N[C@@H](CC(N)=O)C(=O)N[C@@H](CC(N)=O)C(=O)N[C@H](C(=O)N[C@@H](CCCNC(=N)N)C(=O)N[C@@H](CC(C)C)C(=O)N[C@H](C(=O)N[C@@H](CCCCNC(=O)CCCCCN1C(=O)CC(SC[C@H](NC(=O)[C@H](C)NC(=O)[C@@H](NC(=O)[C@@H]2CCCN2C(=O)[C@@H](NC(=O)[C@@H](NC(=O)[C@H](CC(N)=O)NC(=O)[C@@H](NC(=O)CNC(=O)[C@H](Cc2ccccc2)NC(=O)[C@@H](N)Cc2ccccc2)[C@@H](C)CC)[C@@H](C)O)[C@@H](C)CC)[C@@H](C)CC)C(N)=O)C1=O)C(=O)N1CCC[C@H]1C(=O)N[C@@H](CCCCN)C(=O)NCC(=O)NCC(=O)N[C@@H](CC(C)C)C(=O)N[C@H](C(=O)N[C@@H](CC(=O)O)C(=O)N[C@H](C(=O)N[C@@H](C)C(=O)N1CCC[C@H]1C(=O)N[C@@H](Cc1c[nH]cn1)C(=O)N[C@@H](CCC(N)=O)C(=O)N[C@H](C(=O)N[C@@H](CO)C(=O)N[C@@H](CO)C(=O)N[C@H](C(N)=O)C(C)C)[C@@H](C)CC)[C@@H](C)CC)[C@@H](C)CC)[C@@H](C)O)[C@@H](C)O)C(C)C (some centres unmarked) [pal-A(P)I, palmitoyl-KLVANNTRL-TKmal(FFGINTIPIAC)PKG-GLIDIAPHQISSV] (I: Palmitoyl-KLVANNTRLTKPKGGLIDIAPHQISSV-NH2 / II: H-FFGINTIPIAC-NH2; linker I:11-II:11 via X1) | very low water solubility | > 100 | – | – | – |
| CC[C@H](C)[C@H](NC(=O)CNC(=O)[C@H](Cc1ccccc1)NC(=O)[C@@H](N)Cc1ccccc1)C(=O)N[C@@H](CC(N)=O)C(=O)N[C@H](C(=O)N[C@H](C(=O)N1CCC[C@H]1C(=O)N[C@H](C(=O)N[C@@H](C)C(=O)N[C@@H](CSC1CC(=O)N(CCCCCC(=O)NCCCC[C@H](NC(=O)[C@@H](NC(=O)[C@H](CC(C)C)NC(=O)[C@H](CCCNC(=N)N)NC(=O)[C@@H](NC(=O)[C@H](CC(N)=O)NC(=O)[C@H](CC(N)=O)NC(=O)[C@H](C)NC(=O)[C@@H](NC(=O)[C@H](CC(C)C)NC(=O)[C@H](CCCCN)NC(C)=O)C(C)C)[C@@H](C)O)[C@@H](C)O)C(=O)N2CCC[C@H]2C(=O)N[C@@H](CCCCN)C(=O)NCC(=O)NCC(=O)N[C@@H](CC(C)C)C(=O)N[C@H](C(=O)N[C@@H](CC(=O)O)C(=O)N[C@H](C(=O)N[C@@H](C)C(=O)N2CCC[C@H]2C(=O)N[C@@H](Cc2c[nH]cn2)C(=O)N[C@@H](CCC(N)=O)C(=O)N[C@H](C(=O)N[C@@H](CO)C(=O)N[C@@H](CO)C(=O)N[C@H](C(N)=O)C(C)C)[C@@H](C)CC)[C@@H](C)CC)[C@@H](C)CC)C1=O)C(N)=O)[C@@H](C)CC)[C@@H](C)CC)[C@@H](C)O (some centres unmarked) [A(P)I, KLVANNTRL-TKmal(FFGINTIPIAC)PKG-GLIDIAPHQISSV] (I: Ac-KLVANNTRLTKPKGGLIDIAPHQISSV-NH2 / II: H-FFGINTIPIAC-NH2; linker I:11-II:11 via X1; N-terminus and C-terminus assumed) | – | – | significantly slower than the internalization of pal-A(P)I | 21.5 | colocalization with lysosomes that was even more pronounced |

Source: PMC6789589, “A Convenient Synthetic Method to Improve Immunogenicity of Mycobacterium tuberculosis Related T-Cell Epitope Peptides” (Vaccines, 2019)
